Measurements: paper PMC2919811 (Analytical biochemistry, 2010)
Read-outs that look alike come from different tables or passages of the source.

How the values were obtained:
OATP1B3 [1] = molecular target: T1, OATP1B3 (Homo sapiens, UniProt Q9NPD5); details: read-out: OATP1B3 Km; literature value; cited from earlier work
T1 sequence (Q9NPD5 1-702): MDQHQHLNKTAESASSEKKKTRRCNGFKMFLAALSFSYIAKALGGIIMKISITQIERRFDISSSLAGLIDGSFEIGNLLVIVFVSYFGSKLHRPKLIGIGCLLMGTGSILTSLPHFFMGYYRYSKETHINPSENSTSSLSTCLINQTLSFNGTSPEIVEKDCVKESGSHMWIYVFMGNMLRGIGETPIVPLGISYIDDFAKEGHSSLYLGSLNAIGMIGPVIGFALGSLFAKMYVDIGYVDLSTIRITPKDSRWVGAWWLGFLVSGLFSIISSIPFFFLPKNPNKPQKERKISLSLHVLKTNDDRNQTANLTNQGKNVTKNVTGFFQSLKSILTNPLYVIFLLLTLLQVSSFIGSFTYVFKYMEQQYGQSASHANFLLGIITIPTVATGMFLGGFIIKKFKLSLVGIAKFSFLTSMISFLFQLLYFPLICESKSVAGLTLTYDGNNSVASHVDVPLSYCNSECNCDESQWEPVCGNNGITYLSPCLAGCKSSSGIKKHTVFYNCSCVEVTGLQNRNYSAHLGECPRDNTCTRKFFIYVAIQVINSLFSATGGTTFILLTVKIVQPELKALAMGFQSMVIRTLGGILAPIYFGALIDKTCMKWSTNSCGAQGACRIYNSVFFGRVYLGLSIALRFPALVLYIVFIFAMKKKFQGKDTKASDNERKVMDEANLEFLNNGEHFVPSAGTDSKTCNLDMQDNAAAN

OATP1B3 [2] = molecular target: T1, OATP1B3; test: Cellular accumulation in CHO cells transiently transfected with OATP1B3; details: 2 μM substrate (figure 2 legend), transiently transfected CHO cells
OATP1B3 [3] = molecular target: T1, OATP1B3; test: Substrate uptake and transport kinetics in CHO cells stably expressing OATP1B3; details: 2 μM substrate, five minute accumulation, CHOvector = 1
OATP1B3 [4] = molecular target: T1, OATP1B3
OATP2B1 [5] = molecular target: T2, OATP2B1 (Homo sapiens, UniProt O94956); test: Substrate uptake in CHO cells stably expressing OATP2B1; assay type: cell-based; details: 2 μM substrate, five minute accumulation, CHOvector = 1
T2 sequence (O94956 1-709): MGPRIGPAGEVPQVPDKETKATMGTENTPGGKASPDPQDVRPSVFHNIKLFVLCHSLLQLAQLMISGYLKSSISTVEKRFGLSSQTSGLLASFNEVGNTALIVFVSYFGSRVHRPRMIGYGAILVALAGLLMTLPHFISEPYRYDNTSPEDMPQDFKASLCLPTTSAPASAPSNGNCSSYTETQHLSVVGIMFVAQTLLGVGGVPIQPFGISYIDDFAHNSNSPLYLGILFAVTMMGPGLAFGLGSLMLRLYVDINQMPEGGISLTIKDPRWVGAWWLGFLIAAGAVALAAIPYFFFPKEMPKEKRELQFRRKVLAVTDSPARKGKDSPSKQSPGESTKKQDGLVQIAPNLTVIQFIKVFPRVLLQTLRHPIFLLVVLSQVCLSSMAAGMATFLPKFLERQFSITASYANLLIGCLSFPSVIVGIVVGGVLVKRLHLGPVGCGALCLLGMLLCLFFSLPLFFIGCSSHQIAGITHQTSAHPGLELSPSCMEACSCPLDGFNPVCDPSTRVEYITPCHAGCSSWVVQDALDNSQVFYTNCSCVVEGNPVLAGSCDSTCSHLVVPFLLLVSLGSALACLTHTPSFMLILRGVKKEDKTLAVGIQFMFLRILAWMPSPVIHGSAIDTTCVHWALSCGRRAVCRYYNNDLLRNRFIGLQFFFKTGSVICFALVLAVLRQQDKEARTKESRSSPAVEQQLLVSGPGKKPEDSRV

OATP1B1 [6] = molecular target: T3, OATP1B1 (Homo sapiens, UniProt Q9Y6L6)
T3 sequence (Q9Y6L6 whole entry): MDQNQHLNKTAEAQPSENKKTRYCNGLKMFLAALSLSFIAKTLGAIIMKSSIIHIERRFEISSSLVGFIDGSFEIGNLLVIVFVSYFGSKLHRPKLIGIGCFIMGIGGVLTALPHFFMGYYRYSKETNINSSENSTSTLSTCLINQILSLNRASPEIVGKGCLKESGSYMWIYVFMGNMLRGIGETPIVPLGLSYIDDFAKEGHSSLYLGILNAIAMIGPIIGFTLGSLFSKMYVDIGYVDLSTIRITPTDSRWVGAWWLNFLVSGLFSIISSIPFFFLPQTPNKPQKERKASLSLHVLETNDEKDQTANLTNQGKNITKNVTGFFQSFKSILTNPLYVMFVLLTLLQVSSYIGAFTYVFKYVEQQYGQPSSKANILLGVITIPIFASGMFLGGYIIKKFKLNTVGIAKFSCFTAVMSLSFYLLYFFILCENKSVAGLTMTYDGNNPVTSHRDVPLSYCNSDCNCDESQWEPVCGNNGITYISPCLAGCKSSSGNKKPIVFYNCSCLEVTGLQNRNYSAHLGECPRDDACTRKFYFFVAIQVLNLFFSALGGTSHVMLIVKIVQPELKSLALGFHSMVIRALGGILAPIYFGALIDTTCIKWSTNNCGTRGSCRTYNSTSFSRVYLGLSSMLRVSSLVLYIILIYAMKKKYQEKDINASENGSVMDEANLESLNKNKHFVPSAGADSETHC

OATP1B1 [7] = molecular target: T3, OATP1B1; details: read-out: OATP1B1 Km; literature value; cited from earlier work
OATP1B1 [8] = molecular target: T3, OATP1B1; details: 2 μM substrate, transiently transfected CHO cells
OAT3 = molecular target: T4, OAT3 (Homo sapiens, UniProt Q8TCC7); assay type: cell-based; details: 2 μM substrate, transiently transfected CHO cells
T4 sequence (Q8TCC7 1-542): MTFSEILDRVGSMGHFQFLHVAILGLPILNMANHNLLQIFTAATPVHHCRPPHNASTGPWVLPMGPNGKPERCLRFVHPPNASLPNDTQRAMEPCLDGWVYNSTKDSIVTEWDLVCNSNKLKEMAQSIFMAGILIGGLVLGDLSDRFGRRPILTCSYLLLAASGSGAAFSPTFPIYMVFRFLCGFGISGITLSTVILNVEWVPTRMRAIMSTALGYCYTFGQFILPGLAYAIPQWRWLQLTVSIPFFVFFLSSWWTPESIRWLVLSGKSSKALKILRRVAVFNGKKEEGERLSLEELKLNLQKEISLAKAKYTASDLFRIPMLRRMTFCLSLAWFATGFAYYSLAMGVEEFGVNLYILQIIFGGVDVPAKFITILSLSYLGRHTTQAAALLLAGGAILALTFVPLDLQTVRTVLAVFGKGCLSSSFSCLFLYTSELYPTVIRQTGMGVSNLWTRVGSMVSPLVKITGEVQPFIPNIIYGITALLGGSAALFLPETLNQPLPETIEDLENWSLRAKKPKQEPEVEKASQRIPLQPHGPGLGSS

OATP2B1 [9] = molecular target: T2, OATP2B1; test: Cellular accumulation in CHO cells transiently transfected with OATP2B1; assay type: cell-based; details: 2 μM substrate, transiently transfected CHO cells
OATP1B1 [10] = molecular target: T3, OATP1B1; test: Substrate uptake and transport kinetics in CHO cells stably expressing OATP1B1; details: 2 μM substrate, five minute accumulation, CHOvector = 1
OCT2 = molecular target: T5, OCT2 (Homo sapiens, UniProt O15244); test: Cellular accumulation in CHO cells transiently transfected with OCT2; assay type: cell-based; details: 10 μM substrate, transiently transfected CHO cells
T5 sequence (O15244 1-555): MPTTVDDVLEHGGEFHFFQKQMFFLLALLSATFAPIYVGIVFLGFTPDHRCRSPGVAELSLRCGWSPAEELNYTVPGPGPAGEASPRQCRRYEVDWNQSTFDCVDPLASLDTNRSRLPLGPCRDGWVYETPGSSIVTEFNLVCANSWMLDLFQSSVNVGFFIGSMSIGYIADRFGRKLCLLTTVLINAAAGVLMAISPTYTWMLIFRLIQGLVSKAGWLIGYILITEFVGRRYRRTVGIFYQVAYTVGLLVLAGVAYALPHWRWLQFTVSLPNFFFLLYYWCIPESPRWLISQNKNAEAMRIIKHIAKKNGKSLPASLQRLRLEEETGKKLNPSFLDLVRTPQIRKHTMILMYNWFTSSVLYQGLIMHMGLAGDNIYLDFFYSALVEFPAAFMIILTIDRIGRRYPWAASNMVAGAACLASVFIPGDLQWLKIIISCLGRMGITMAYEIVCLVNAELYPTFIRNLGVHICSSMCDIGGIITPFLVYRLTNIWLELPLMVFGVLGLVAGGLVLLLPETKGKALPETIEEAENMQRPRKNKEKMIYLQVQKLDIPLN

OCT1 = molecular target: T6, OCT1 (Homo sapiens, UniProt O15245); test: Cellular accumulation in CHO cells transiently transfected with OCT1; assay type: cell-based; details: 10 μM substrate, transiently transfected CHO cells
T6 sequence (O15245 1-554): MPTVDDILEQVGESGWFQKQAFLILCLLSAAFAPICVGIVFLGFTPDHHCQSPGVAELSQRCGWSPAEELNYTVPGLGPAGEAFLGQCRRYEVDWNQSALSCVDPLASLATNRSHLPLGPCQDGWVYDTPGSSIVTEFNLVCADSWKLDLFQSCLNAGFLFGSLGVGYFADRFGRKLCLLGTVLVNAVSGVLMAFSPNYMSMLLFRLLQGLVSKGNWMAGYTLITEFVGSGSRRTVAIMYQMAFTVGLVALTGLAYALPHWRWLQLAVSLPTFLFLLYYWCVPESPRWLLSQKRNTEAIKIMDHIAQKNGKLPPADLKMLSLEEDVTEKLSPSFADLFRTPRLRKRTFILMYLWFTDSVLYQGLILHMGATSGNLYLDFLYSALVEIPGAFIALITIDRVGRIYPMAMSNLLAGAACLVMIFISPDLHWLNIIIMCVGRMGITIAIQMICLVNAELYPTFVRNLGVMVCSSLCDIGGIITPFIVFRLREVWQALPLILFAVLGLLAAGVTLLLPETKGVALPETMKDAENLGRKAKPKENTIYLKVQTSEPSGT

NTCP = molecular target: T7, NTCP (Homo sapiens, UniProt Q14973); test: Cellular accumulation in CHO cells transiently transfected with NTCP; assay type: cell-based; details: 2 μM substrate, transiently transfected CHO cells
T7 sequence (Q14973 1-349): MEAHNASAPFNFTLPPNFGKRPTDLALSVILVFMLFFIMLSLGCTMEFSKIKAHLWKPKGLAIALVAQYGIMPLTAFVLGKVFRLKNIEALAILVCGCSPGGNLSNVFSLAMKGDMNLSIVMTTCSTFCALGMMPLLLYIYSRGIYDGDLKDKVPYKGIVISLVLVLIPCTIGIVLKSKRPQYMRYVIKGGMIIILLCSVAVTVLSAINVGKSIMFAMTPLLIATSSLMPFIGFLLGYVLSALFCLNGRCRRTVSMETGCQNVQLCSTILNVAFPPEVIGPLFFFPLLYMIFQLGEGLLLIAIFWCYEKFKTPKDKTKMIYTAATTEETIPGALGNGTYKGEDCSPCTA

[11] = read-out: OATP1B3 IC50 value, inhibition of OATP1B3-mediated transport of 1.25 μM 8-FcA, 10 min, mean ± standard error, two experiments
[12] = read-out: OATP1B1 IC50 value, inhibition of OATP1B1-mediated transport of […] 8-FcA, 10 min, mean ± standard error, two experiments

| Structure (SMILES) | Km (OATP1B3 [1]) | IC50 (OATP1B3 [4]; [11]) | IC50 (OATP1B1 [6]; [12]) | Km (OATP1B1 [7]) | IC50 (OATP1B3 [4]) | further results |
| --- | --- | --- | --- | --- | --- | --- |
| O=C1OC(c2ccc(O)c(S(=O)(=O)O)c2)(c2ccc(O)c(S(=O)(=O)O)c2)c2c(Br)c(Br)c(Br)c(Br)c21 [bromosulfophthalein] | 0.4 µM | 510 ± 20 nM | 180 ± 20 nM | 0.3 µM | – | increase in activity versus vector control, OATP1B3 (OATP1B3 [2]): 1.26 fold; cellular accumulation relative to control, CHOOATP1B3 (OATP1B3 [3]): 13.8 fold; cellular accumulation relative to control, CHOOATP2B1 (OATP2B1 [5]): 6.6 fold |
| C[C@]12CC[C@@H]3c4ccc(O)cc4CC[C@H]3[C@@H]1CC[C@@H]2O[C@@H]1O[C@H](C(=O)O)[C@@H](O)[C@H](O)[C@H]1O [estradiol-17β-d-glucuronide] | 15.8 µM | 23500 ± 1590 nM | 4880 ± 870 nM | 5.4 µM | – | – |
| C[C@]12CC[C@@H]3c4ccc(OS(=O)(=O)O)cc4CC[C@H]3[C@@H]1CCC2=O [estrone-3-sulfate] | 58 µM | 20100 ± 1000 nM | 53 ± 5 nM | – | – | increase in activity compared to vector control, OATP1B1 (OATP1B1 [8]): 3.1 fold; increase in activity compared to vector control, OAT3 (OAT3): 3.8 fold; cellular accumulation relative to control, CHOOATP1B3 (OATP1B3 [3]): 4.1 fold; increase in activity compared to vector control, OATP2B1 (OATP2B1 [9]): 12.5 fold; cellular accumulation relative to control, CHOOATP1B1 (OATP1B1 [10]): 36.1 fold |
| COc1ccc(Cl)cc1C(=O)NCCc1ccc(S(=O)(=O)NC(=O)NC2CCCCC2)cc1 [glibenclamide] | – | – | – | – | 2690 ± 120 nM | – |
| CN(C)C(=N)N=C(N)N [metformin] | – | – | – | – | – | mean increase in transport over vector control, OCT2 (OCT2): 24.5 fold; mean increase in transport over vector control, OCT1 (OCT1): 2.4 fold |
| CO[C@H]1/C=C/O[C@@]2(C)Oc3c(C)c(O)c4c(O)c(c(/C=N/N5CCN(C)CC5)c(O)c4c3C2=O)NC(=O)/C(C)=C\C=C\[C@H](C)[C@H](O)[C@@H](C)[C@@H](O)[C@@H](C)[C@H](OC(C)=O)[C@@H]1C [rifampicin] | – | – | – | 13 µM | 650 ± 20 nM | IC50 (OATP1B1 [6]): 990 ± 70 nM |
| C[C@H](CCC(=O)NCCS(=O)(=O)O)[C@H]1CC[C@H]2[C@@H]3[C@H](O)C[C@@H]4C[C@H](O)CC[C@]4(C)[C@H]3C[C@H](O)[C@]12C [taurocholate] | – | – | – | – | – | increase in transport compared to vector control, NTCP (NTCP): 168.9 fold |
| NC(Cc1cc(I)c(Oc2cc(I)c(O)c(I)c2)c(I)c1)C(=O)O (centres unmarked) [thyroxine] | – | – | – | 3 µM | 2130 ± 170 nM | IC50 (OATP1B1 [6]): 3850 ± 880 nM |
